Measurements reported in publication PMC8333062, “Chemical tools for epichaperome-mediated interactome dysfunctions of the central nervous system” (Nature Communications, 2021).
Where “and” joins values, the source holds several entries; their conditions need not be identical. Equal values may be shown once.

Legend:
[1] = system: epichaperomes in MDA-MB-468 cells; test: Epichaperome modulation, Native PAGE; format: cell-based, human
[2] = LC/MS-MS tissue concentration 48 h after 75 mg kg-1 ip; format: in vivo; conditions: mouse, MDA-MB-468 tumor, intraperitoneal, 75 mg kg^−1, 48 h post 75mg/kg ip, mouse 1-4; read-out: [PU-HZ151] MDA-MB-468 TUMOR
[3] = system: MDA-MB-468 tumor and organs; test: as above; format: in vivo; conditions: 48 h post 75mg/kg ip, mouse 1-4; listed as PU-HZ151
CYP3A = test: Cytochrome P450 profiling, ketoconazole; format: in vitro ADME, human; conditions: for % PU-HZ151 remaining: Ketoconazole
Method: (§1) To identify cytochrome P450 enzymes responsible for PU-HZ151’s metabolism in human liver microsomes the following procedure was followed. Phosphate buffer (100 mM, pH 7.4) was prepared monthly and stored at 4 °C. Frozen stock solutions of human liver microsomes (Life Technologies; Cat# HMMCPL) were used once after thawing and were not refrozen. NADPH stock solution (50 mM) in distilled water was prepared fresh daily. […] The stock solutions of these P450 inhibitors were prepared in DMSO. […] The concentration of the chemical inhibitors used in the assay were furafylline (10 μM), tranylcypromine (2 μM), ketoconazole (1 μM), troleandomycin (20 μM), orphenadrine (50 μM), montelukast (3 μM), sulfaphenazole (10 μM), benzylnirvanol (1 μM), quinidine (1 μM), and 1-aminobenzotriazole (1 mM) for all the P450 enzymes. Timing of the reactions was started following the addition of NADPH/magnesium chloride mix and PU-HZ151. Time-dependent chemical inhibitors (furafylline, troleandomycin, orphenadrine, and 1-aminobenzotriazole) were preincubated with human microsomes in the presence of NADPH and magnesium chloride for 15 min before the addition of PU-HZ151 and timing of reactions was started after addition of PU-HZ151. […] Following brief vortexing and centrifugation, a 200 µL aliquot of the supernatant was transferred to a tube, and 10 µL of haloperidol (1 µg mL^−1) as internal standard was added. Following brief vortexing and centrifugation, 50 µL of supernatant was added to a 96-well plate for subsequent LC-MS/MS analysis. PU-HZ151 was similarly tested as above in the absence of CYP inhibitors for comparative purposes. All samples were assayed in duplicate. […] This was similarly performed for incubations of PU-HZ151 performed in the absence of CYP inhibitor.

CYP2D6 = target: T1, CYP2D6 (Homo sapiens, UniProt P10635); test: Cytochrome P450 profiling, quinidine; format: in vitro ADME; conditions: for % PU-HZ151 remaining: Quinidine
T1 construct: tissue Life Technologies HMMCPL; host or cells: human liver microsomes
T1 sequence (P10635 whole entry): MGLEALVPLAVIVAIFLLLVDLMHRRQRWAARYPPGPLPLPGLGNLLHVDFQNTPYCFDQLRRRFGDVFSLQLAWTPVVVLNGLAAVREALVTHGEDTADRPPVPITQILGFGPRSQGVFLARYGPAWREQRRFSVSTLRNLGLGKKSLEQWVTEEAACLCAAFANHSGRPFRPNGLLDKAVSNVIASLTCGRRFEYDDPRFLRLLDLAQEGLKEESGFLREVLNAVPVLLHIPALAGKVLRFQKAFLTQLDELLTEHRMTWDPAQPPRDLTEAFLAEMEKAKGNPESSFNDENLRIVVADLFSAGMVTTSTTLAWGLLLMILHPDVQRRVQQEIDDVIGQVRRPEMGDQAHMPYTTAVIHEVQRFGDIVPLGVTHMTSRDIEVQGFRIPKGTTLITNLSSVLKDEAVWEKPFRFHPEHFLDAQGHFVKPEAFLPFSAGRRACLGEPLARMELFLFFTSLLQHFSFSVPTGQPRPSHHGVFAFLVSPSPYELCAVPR
Method: as §1

[4] = target: T2, 70 key receptor, enzyme, and ion channel proteins (Homo sapiens, UniProt P07550); test: General side effect profile (SEP) II diversity panel; format: binding; conditions: 1.0E-5 M
T2 construct: purchased Caliper Life Sciences (now PerkinElmer), NOVASCREEN General SEP II

[5] = target: T3, 70 key receptor, enzyme, and ion channel proteins (Homo sapiens, UniProt P21731); test: as above; format: binding; conditions: 1.0E-5 M
T3 construct: purchased Caliper Life Sciences (now PerkinElmer), NOVASCREEN General SEP II

[6] = target: T4, 70 key receptor, enzyme, and ion channel proteins (Homo sapiens, UniProt P29274); test: as above; format: binding; conditions: 1.0E-5 M
T4 construct: purchased Caliper Life Sciences (now PerkinElmer), NOVASCREEN General SEP II

97 kinases [7] = target: T5, 97 kinases (Homo sapiens, UniProt O14757); test: scanEDGE off-target screen; format: binding; conditions: read-out: %Ctrl CHEK1
T5 construct: purchased Ambit Biosciences (scanEDGE / KINOMEscan) scanEDGE 97 kinase panel; host or cells: T7 phage in E. coli BL21-derived host; remaining kinases in HEK-293 cells
T5 sequence (O14757 whole entry): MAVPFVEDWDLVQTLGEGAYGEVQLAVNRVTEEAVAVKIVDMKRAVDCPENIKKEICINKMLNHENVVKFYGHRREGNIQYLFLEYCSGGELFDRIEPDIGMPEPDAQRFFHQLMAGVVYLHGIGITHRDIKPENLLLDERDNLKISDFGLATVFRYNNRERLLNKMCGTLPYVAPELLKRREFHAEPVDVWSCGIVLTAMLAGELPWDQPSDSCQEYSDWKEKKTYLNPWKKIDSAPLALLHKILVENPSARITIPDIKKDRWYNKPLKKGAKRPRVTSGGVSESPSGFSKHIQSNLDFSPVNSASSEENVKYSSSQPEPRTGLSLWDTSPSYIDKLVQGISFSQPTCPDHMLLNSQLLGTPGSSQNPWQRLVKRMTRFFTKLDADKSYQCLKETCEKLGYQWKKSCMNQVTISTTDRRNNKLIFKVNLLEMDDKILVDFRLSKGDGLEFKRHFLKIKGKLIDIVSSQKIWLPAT

97 kinases [8] = target: T6, 97 kinases (Homo sapiens, UniProt O14920); test: scanEDGE off-target screen; format: binding; conditions: read-out: %Ctrl IKK-beta
T6 construct: purchased Ambit Biosciences (scanEDGE / KINOMEscan) scanEDGE 97 kinase panel; host or cells: T7 phage in E. coli BL21-derived host; remaining kinases in HEK-293 cells

97 kinases [9] = target: T7, 97 kinases (Homo sapiens, UniProt O15111); test: scanEDGE off-target screen; format: binding; conditions: read-out: %Ctrl IKK-alpha
T7 construct: purchased Ambit Biosciences (scanEDGE / KINOMEscan) scanEDGE 97 kinase panel; host or cells: T7 phage in E. coli BL21-derived host; remaining kinases in HEK-293 cells

97 kinases [10] = target: T8, 97 kinases (Homo sapiens, UniProt P07333); test: scanEDGE off-target screen; format: binding; conditions: read-out: %Ctrl CSF1R
T8 construct: purchased Ambit Biosciences (scanEDGE / KINOMEscan) scanEDGE 97 kinase panel; host or cells: T7 phage in E. coli BL21-derived host; remaining kinases in HEK-293 cells

97 kinases [11] = target: T9, 97 kinases (Homo sapiens, UniProt P21802); test: scanEDGE off-target screen; format: binding; conditions: read-out: %Ctrl FGFR2
T9 construct: purchased Ambit Biosciences (scanEDGE / KINOMEscan) scanEDGE 97 kinase panel; host or cells: T7 phage in E. coli BL21-derived host; remaining kinases in HEK-293 cells
T9 sequence (P21802 22-821): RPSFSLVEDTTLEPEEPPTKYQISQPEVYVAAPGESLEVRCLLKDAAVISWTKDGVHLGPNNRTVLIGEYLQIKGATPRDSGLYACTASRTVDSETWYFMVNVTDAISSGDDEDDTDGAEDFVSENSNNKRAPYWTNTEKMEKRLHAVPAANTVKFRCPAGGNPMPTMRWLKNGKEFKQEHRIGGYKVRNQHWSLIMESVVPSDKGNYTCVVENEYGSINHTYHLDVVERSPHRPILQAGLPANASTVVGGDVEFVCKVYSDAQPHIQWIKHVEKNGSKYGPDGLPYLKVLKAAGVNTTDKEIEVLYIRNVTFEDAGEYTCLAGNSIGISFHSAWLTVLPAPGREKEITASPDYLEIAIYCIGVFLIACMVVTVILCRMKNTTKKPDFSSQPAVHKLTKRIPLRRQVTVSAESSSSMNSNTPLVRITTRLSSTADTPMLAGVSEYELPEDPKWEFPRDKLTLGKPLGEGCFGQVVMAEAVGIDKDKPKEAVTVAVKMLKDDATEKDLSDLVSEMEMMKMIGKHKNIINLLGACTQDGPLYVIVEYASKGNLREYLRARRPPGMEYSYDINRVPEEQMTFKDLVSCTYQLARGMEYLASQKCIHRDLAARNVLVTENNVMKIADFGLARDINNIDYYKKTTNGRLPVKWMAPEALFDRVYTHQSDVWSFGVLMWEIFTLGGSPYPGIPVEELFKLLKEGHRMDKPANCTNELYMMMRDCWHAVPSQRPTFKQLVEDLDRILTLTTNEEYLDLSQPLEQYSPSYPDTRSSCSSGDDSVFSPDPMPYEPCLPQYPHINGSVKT

97 kinases [12] = target: T10, 97 kinases (Homo sapiens, UniProt P29597); test: scanEDGE off-target screen; format: binding; conditions: read-out: %Ctrl TYK2(JH1domain-catalytic)
T10 construct: purchased Ambit Biosciences (scanEDGE / KINOMEscan) scanEDGE 97 kinase panel; host or cells: T7 phage in E. coli BL21-derived host; remaining kinases in HEK-293 cells
T10 sequence (P29597 whole entry): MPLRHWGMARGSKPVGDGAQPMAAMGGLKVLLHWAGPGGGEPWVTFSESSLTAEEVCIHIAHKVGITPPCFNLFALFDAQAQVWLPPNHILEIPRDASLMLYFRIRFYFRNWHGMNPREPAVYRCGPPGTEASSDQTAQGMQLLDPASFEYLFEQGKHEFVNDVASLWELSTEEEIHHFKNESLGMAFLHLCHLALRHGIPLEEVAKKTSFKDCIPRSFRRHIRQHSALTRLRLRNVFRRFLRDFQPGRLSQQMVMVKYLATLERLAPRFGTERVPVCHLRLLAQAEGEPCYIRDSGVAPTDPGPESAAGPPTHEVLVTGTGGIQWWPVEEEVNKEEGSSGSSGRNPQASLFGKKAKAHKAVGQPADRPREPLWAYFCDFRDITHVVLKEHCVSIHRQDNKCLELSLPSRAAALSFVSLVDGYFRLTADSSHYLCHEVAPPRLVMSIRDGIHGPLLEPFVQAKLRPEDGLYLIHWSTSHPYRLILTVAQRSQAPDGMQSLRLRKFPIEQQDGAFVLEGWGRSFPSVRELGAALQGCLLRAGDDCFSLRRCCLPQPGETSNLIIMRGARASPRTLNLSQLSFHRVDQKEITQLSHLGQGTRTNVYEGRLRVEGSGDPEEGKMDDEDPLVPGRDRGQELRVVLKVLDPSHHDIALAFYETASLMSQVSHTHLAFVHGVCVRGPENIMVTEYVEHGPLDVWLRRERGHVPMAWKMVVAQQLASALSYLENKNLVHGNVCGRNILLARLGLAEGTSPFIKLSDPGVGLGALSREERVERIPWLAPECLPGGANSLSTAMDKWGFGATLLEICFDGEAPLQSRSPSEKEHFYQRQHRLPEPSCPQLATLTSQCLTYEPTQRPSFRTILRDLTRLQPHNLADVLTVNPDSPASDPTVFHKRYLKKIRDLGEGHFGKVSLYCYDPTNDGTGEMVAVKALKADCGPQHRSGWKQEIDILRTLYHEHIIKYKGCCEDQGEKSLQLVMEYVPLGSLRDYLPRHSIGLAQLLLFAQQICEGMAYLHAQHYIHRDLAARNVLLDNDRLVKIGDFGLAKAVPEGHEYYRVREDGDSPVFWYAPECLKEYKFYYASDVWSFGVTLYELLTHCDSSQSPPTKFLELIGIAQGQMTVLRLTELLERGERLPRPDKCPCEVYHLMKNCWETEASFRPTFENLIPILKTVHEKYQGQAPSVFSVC

97 kinases [13] = target: T11, 97 kinases (Homo sapiens, UniProt P43403); test: scanEDGE off-target screen; format: binding; conditions: read-out: %Ctrl ZAP70
T11 construct: purchased Ambit Biosciences (scanEDGE / KINOMEscan) scanEDGE 97 kinase panel; host or cells: T7 phage in E. coli BL21-derived host; remaining kinases in HEK-293 cells

97 kinases [14] = target: T12, 97 kinases (Homo sapiens, UniProt P48730); test: scanEDGE off-target screen; format: binding; conditions: read-out: %Ctrl CSNK1D
T12 construct: purchased Ambit Biosciences (scanEDGE / KINOMEscan) scanEDGE 97 kinase panel; host or cells: T7 phage in E. coli BL21-derived host; remaining kinases in HEK-293 cells

97 kinases [15] = target: T13, 97 kinases (Homo sapiens, UniProt P50750); test: scanEDGE off-target screen; format: binding; conditions: read-out: %Ctrl CDK9
T13 construct: purchased Ambit Biosciences (scanEDGE / KINOMEscan) scanEDGE 97 kinase panel; host or cells: T7 phage in E. coli BL21-derived host; remaining kinases in HEK-293 cells
T13 sequence (P50750 whole entry): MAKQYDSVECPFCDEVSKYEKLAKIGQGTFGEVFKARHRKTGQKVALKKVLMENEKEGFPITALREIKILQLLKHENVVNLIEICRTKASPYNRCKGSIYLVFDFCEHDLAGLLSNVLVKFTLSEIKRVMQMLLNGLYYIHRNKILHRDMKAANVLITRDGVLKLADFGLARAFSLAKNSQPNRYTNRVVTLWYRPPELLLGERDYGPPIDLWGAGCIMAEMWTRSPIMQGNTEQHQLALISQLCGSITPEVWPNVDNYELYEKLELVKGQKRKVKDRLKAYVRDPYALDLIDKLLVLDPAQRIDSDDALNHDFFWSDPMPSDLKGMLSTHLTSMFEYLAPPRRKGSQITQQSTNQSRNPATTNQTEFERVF

97 kinases [16] = target: T14, 97 kinases (Homo sapiens, UniProt P51812); test: scanEDGE off-target screen; format: binding; conditions: read-out: %Ctrl RSK2(Kin.Dom.1-N-terminal)
T14 construct: purchased Ambit Biosciences (scanEDGE / KINOMEscan) scanEDGE 97 kinase panel; host or cells: T7 phage in E. coli BL21-derived host; remaining kinases in HEK-293 cells

97 kinases [17] = target: T15, 97 kinases (Homo sapiens, UniProt P53350); test: scanEDGE off-target screen; format: binding; conditions: read-out: %Ctrl PLK1
T15 construct: purchased Ambit Biosciences (scanEDGE / KINOMEscan) scanEDGE 97 kinase panel; host or cells: T7 phage in E. coli BL21-derived host; remaining kinases in HEK-293 cells
T15 sequence (P53350 whole entry): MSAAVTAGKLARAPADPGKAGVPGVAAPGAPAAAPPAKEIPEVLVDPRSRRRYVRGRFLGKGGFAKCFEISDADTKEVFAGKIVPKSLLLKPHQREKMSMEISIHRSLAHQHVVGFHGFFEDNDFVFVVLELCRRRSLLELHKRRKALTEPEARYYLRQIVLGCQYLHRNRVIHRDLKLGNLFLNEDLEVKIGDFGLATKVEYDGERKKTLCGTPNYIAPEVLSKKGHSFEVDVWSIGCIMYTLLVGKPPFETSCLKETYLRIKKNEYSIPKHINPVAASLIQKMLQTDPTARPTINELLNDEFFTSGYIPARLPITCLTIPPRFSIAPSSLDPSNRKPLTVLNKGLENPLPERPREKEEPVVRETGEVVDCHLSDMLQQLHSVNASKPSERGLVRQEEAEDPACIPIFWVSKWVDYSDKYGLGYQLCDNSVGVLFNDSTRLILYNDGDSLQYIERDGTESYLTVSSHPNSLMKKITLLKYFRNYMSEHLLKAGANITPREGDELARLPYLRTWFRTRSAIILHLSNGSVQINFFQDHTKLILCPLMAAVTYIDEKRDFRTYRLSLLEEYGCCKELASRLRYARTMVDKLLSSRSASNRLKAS

97 kinases [18] = target: T16, 97 kinases (Homo sapiens, UniProt P53779); test: scanEDGE off-target screen; format: binding; conditions: read-out: %Ctrl JNK3
T16 construct: purchased Ambit Biosciences (scanEDGE / KINOMEscan) scanEDGE 97 kinase panel; host or cells: T7 phage in E. coli BL21-derived host; remaining kinases in HEK-293 cells

97 kinases [19] = target: T17, 97 kinases (Homo sapiens, UniProt Q13177); test: scanEDGE off-target screen; format: binding; conditions: read-out: %Ctrl PAK2
T17 construct: purchased Ambit Biosciences (scanEDGE / KINOMEscan) scanEDGE 97 kinase panel; host or cells: T7 phage in E. coli BL21-derived host; remaining kinases in HEK-293 cells

97 kinases [20] = target: T18, 97 kinases (Homo sapiens, UniProt Q15759); test: scanEDGE off-target screen; format: binding; conditions: read-out: %Ctrl p38-beta
T18 construct: purchased Ambit Biosciences (scanEDGE / KINOMEscan) scanEDGE 97 kinase panel; host or cells: T7 phage in E. coli BL21-derived host; remaining kinases in HEK-293 cells
T18 sequence (Q15759 whole entry): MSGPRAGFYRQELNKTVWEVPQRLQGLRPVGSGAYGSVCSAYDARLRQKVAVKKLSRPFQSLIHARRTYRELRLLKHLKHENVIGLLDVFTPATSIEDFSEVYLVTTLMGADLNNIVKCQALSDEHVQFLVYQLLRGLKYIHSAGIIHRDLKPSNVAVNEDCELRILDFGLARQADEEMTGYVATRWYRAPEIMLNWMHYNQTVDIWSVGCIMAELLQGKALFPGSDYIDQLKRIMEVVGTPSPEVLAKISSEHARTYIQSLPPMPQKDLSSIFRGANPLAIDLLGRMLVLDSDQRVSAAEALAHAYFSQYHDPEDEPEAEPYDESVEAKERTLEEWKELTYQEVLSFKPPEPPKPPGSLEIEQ

97 kinases [21] = target: T19, 97 kinases (Homo sapiens, UniProt Q86V86); test: scanEDGE off-target screen; format: binding; conditions: read-out: %Ctrl PIM3
T19 construct: purchased Ambit Biosciences (scanEDGE / KINOMEscan) scanEDGE 97 kinase panel; host or cells: T7 phage in E. coli BL21-derived host; remaining kinases in HEK-293 cells

97 kinases [22] = target: T20, 97 kinases (Homo sapiens, UniProt Q96GD4); test: scanEDGE off-target screen; format: binding; conditions: read-out: %Ctrl AURKB
T20 construct: purchased Ambit Biosciences (scanEDGE / KINOMEscan) scanEDGE 97 kinase panel; host or cells: T7 phage in E. coli BL21-derived host; remaining kinases in HEK-293 cells
T20 sequence (Q96GD4 whole entry): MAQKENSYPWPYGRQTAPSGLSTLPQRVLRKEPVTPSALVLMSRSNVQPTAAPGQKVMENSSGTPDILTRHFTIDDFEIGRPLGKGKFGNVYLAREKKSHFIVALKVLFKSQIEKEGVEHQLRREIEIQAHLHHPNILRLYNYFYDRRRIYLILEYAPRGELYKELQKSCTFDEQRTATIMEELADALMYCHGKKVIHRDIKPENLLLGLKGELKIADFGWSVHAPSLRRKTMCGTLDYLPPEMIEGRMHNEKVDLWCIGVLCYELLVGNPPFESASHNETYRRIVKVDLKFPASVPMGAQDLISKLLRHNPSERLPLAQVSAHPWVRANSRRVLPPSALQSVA

97 kinases [23] = target: T21, 97 kinases (Homo sapiens, UniProt Q9BWU1); test: scanEDGE off-target screen; format: binding; conditions: read-out: %Ctrl CDK11
T21 construct: purchased Ambit Biosciences (scanEDGE / KINOMEscan) scanEDGE 97 kinase panel; host or cells: T7 phage in E. coli BL21-derived host; remaining kinases in HEK-293 cells

97 kinases [24] = target: T22, 97 kinases (Homo sapiens, UniProt Q9H093); test: scanEDGE off-target screen; format: binding; conditions: read-out: %Ctrl SNARK
T22 construct: purchased Ambit Biosciences (scanEDGE / KINOMEscan) scanEDGE 97 kinase panel; host or cells: T7 phage in E. coli BL21-derived host; remaining kinases in HEK-293 cells

For `CC(C)(C)CNCCn1c(Sc2cc3c(cc2I)OCO3)nc2c(N)ncnc21` [Compound 85], the “Epichaperome modulation (Native PAGE), R1-R3” value ([1]; [PU-HZ151] 0.05 uM) was 101.613 and 126.223 and 117.544, the “Epichaperome modulation (Native PAGE), R1-R3” value ([1]; [PU-HZ151] 0.1 uM) was 92.742 and 86.889 and 60.276 and the concentration at 48 h [2] was 1670 nM. The “[PU-HZ151] Liver” value [3] was 0.002 µM, the “[PU-HZ151] MDA-MB-468 TUMOR” value [3] was 1.786 µM and 1.509 µM and 1.067 µM and the “% PU-HZ151 remaining” value (CYP3A; 15 min) was 76.5%. For the same molecule, the “% PU-HZ151 remaining” value (CYP3A; 30 min) was 63.5%, the “% PU-HZ151 remaining” value (CYP3A; 60 min) was 50.6% and the “inhibition of PU-HZ151 metabolism” value (CYP3A; ketoconazole) was 40%. For the same molecule, the “% PU-HZ151 remaining” value (CYP2D6; 15 min) was 62.9%, the “% PU-HZ151 remaining” value (CYP2D6; 30 min) was 43.9% and the “% PU-HZ151 remaining” value (CYP2D6; 60 min) was 26.6%. The “inhibition of PU-HZ151 metabolism” value (CYP2D6; quinidine) was 11%, the “Percent Inhibition: Adrenergic, Beta 2 (h)” value [4] was 3.05% and the “Percent Inhibition: Thromboxane AZ (h)” value [5] was 20.84%. For the same molecule, the “Percent Inhibition: Adenosine, A2A (h)” value [6] was 0.79%, the remaining binding at 10 µM (97 kinases [7]) was 100% and the remaining binding at 10 µM (97 kinases [8]) was 88%. The remaining binding at 10 µM (97 kinases [9]) was 99%, the remaining binding at 10 µM (97 kinases [10]) was 94% and the remaining binding at 10 µM (97 kinases [11]) was 63%. It also gave a remaining binding at 10 µM (97 kinases [12]) of 99%, a remaining binding at 10 µM (97 kinases [13]) of 78% and a remaining binding at 10 µM (97 kinases [14]) of 91%. It also gave a remaining binding at 10 µM (97 kinases [15]) of 91%, a remaining binding at 10 µM (97 kinases [16]) of 84% and a remaining binding at 10 µM (97 kinases [17]) of 97%. For the same molecule, the remaining binding at 10 µM (97 kinases [18]) was 100%, the remaining binding at 10 µM (97 kinases [19]) was 97% and the remaining binding at 10 µM (97 kinases [20]) was 89%. The remaining binding at 10 µM (97 kinases [21]) was 91%, the remaining binding at 10 µM (97 kinases [22]) was 73% and the remaining binding at 10 µM (97 kinases [23]) was 90%. It also gave a remaining binding at 10 µM (97 kinases [24]) of 100%.
